The values below come from US20210395239A1 (Hoffmann-La Roche Inc., priority 2018, published 2021).

pIC50: −log10 of the molar value.

This test concerns the target T1, human TLR8 (Homo sapiens, UniProt Q9NR97).
T1 construct: host or cells: HEK293 (HEK-Blue hTLR8)
T1 sequence (Q9NR97 27-1041): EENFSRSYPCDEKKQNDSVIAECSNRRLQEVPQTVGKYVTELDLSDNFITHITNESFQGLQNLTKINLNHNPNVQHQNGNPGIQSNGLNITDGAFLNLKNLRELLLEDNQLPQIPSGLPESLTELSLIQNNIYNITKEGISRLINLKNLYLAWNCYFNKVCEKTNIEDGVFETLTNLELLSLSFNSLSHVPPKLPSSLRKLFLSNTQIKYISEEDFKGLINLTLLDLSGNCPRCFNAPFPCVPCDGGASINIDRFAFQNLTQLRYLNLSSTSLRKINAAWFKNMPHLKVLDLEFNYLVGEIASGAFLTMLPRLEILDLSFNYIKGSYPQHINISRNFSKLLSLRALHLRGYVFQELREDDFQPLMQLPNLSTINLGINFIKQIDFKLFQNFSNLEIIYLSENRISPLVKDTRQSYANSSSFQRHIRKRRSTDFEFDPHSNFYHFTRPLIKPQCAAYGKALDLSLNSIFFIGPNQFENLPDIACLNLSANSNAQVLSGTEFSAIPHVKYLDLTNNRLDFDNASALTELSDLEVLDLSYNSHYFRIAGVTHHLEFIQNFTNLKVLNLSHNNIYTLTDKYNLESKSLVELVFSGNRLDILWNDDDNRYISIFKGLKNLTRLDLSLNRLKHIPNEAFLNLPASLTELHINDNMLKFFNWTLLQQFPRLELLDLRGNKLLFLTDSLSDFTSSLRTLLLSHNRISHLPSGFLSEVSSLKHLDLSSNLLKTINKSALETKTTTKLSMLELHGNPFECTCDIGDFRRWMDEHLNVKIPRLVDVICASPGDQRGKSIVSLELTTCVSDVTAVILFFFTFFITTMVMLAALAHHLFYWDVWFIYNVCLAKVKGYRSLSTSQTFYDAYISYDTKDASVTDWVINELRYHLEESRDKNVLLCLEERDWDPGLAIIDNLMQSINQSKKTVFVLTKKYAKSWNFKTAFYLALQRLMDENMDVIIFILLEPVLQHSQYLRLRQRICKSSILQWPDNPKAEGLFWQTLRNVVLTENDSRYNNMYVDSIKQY
Kind of test: HEK293-Blue-hTLR-8 cells assay (SEAP reporter, R848 stimulation). The test is classed as cell-based. The following applies: HEK293-Blue-hTLR8 cells, R848, 20 hrs; read-out: HEK/hTLR8 IC50. The essentials: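 Antagonism read as reduced R848-induced SEAP reporter secretion, detected by QUANTI-Blue absorbance at 620–655 nm after 2 h. Reporter cells were exposed to compound dilutions in DMEM/10% FBS, 1% DMSO, for 20 h at 37° C.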
Turning to `Cc1cc(N2CCN(C[C@H]3CN(c4ccc(C#N)c5ncccc45)C[C@@H](C)O3)CC2)nc(N2CCNCC2)n1` [Example 47, 5-[(2R,6S)-2-methyl-6-[[4-(6-methyl-2-piperazin-1-yl-pyrimidin-4-yl)piperazin-1-yl]methyl]morpholin-4-yl]quinoline-8-carbonitrile], the pIC50 is 8.52.

In the case of `C[C@@H]1CN(c2ccc(C#N)c3ncccc23)C[C@H](CN2CCN(c3ncc(C#N)c(N4CCNCC4)n3)CC2)O1` [Example 51, 5-[(2S,6R)-2-[[4-(5-cyano-4-piperazin-1-yl-pyrimidin-2-yl)piperazin-1-yl]methyl]-6-methyl-morpholin-4-yl]quinoline-8-carbonitrile], the pIC50 is 8.52.

Consider `COC1CN(c2ccc(C3CN(C[C@H]4CN(c5cc(=O)n(C)c6ncccc56)C[C@@H](C)O4)C3)cc2)C[C@H]1N` (stereo in doubt) [Example 172, 4-[(2S,6R)-2-[[3-[4-[(3R,4R)-3-amino-4-methoxy-pyrrolidin-1-yl]phenyl]azetidin-1-yl]methyl]-6-methyl-morpholin-4-yl]-1-methyl-1,8-naphthyridin-2-one], for which the pIC50 was 7.03. `C[C@@H]1CN(c2ccc(C#N)c3ncccc23)C[C@H](CN2CCN(c3cccc(N4CCNCC4)n3)CC2)O1` [Example 10, 5-[(2R,6S)-2-methyl-6-[[4-(6-piperazin-1-yl-2-pyridyl)piperazin-1-yl]methyl]morpholin-4-yl]quinoline-8-carbonitrile]: the pIC50 was 8.00. Consider `C[C@@H]1CN(c2ccc(C#N)n3ncc(F)c23)C[C@H](CN2CCN(c3ccc(C4CNCCO4)cc3F)CC2)O1` (stereo in doubt) [Example 183, 3-fluoro-4-[(2S,6R)-2-[[4-[2-fluoro-4-[(2S)-morpholin-2-yl]phenyl]piperazin-1-yl]methyl]-6-methyl-morpholin-4-yl]pyrazolo[1,5-a]pyridine-7-carbonitrile], for which the pIC50 is 7.89.

Take `C[C@@H]1CN(c2ccc(C#N)c3ncccc23)C[C@H](CN2CCN(c3cccc(N[C@H]4CNC[C@@H]4F)n3)CC2)O1` [Example 35, 5-[(2S,6R)-2-[[4-[6-[[(3S,4S)-4-fluoropyrrolidin-3-yl]amino]-2-pyridyl]piperazin-1-yl]methyl]-6-methyl-morpholin-4-yl]quinoline-8-carbonitrile]: the pIC50 is 7.48. Under `COC1CN(c2nccc(N3CCN(C[C@H]4CN(c5ccc(C#N)c6ncccc56)C[C@@H](C)O4)CC3)n2)C[C@H]1N` (stereo in doubt) [Example 52, 5-[(2S,6R)-2-[[4-[2-[(3R,4R)-3-amino-4-methoxy-pyrrolidin-1-yl]pyrimidin-4-yl]piperazin-1-yl]methyl]-6-methyl-morpholin-4-yl]quinoline-8-carbonitrile] stands 8.52; under `C[C@@H]1CN(c2ccc(C#N)n3ncc(F)c23)C[C@H](CN2CCN(c3ccc(C4(C)CNCCO4)cc3)CC2)O1` (stereo partly drawn) [Example 185, 3-fluoro-4-[(2R,6S)-2-methyl-6-[[4-[4-(2-methylmorpholin-2-yl)phenyl]piperazin-1-yl]methyl]morpholin-4-yl]pyrazolo[1,5-a]pyridine-7-carbonitrile], 7.48. Turning to `C[C@@H]1CN(c2ccc(C#N)c3ncccc23)C[C@H](CN2CCN(c3ccc([C@@H]4CNCCO4)cc3)CC2)O1` [Example 19, 5-[(2R,6S)-2-methyl-6-[[4-[4-[(2R)-morpholin-2-yl]phenyl]piperazin-1-yl]methyl]morpholin-4-yl]quinoline-8-carbonitrile], the pIC50 was 7.92. For `CO[C@H]1CN(c2nccc(N3CCN(C[C@H]4CN(c5ccc(C#N)c6ncccc56)C[C@@H](C)O4)CC3)n2)CC1N` (stereo in doubt) [Example 53, 5-[(2S,6R)-2-[[4-[2-[(3S,4S)-3-amino-4-methoxy-pyrrolidin-1-yl]pyrimidin-4-yl]piperazin-1-yl]methyl]-6-methyl-morpholin-4-yl]quinoline-8-carbonitrile], the pIC50 was 8.52. Consider `C[C@@H]1CN(c2ccc(C#N)n3ncc(F)c23)C[C@H](CN2CCN(c3ccc(N4CCOC5(CNC5)C4)nc3)CC2)O1` [Example 178, 3-fluoro-4-[(2R,6S)-2-methyl-6-[[4-[6-(5-oxa-2,8-diazaspiro[3.5]nonan-8-yl)-3-pyridyl]piperazin-1-yl]methyl]morpholin-4-yl]pyrazolo[1,5-a]pyridine-7-carbonitrile], for which the pIC50 is 7.04.

`C[C@@H]1CN(c2ccc(C#N)c3ncccc23)C[C@H](CN2CCN(c3ccnc(N4CCN(C(=O)[C@@H]5CCCN5)CC4)n3)CC2)O1` [Example 31, 5-[(2R,6S)-2-methyl-6-[[4-[2-[4-[(2S)-pyrrolidine-2-carbonyl]piperazin-1-yl]pyrimidin-4-yl]piperazin-1-yl]methyl]morpholin-4-yl]quinoline-8-carbonitrile]: the pIC50 is 8.30. Under `Cc1nc(N2CCNCC2)nc(N2CCN(C[C@H]3CN(c4ccc(C#N)c5ncccc45)C[C@@H](C)O3)CC2)c1C` [Example 46, 5-[(2S,6R)-2-[[4-(5,6-dimethyl-2-piperazin-1-yl-pyrimidin-4-yl)piperazin-1-yl]methyl]-6-methyl-morpholin-4-yl]quinoline-8-carbonitrile] stands 8.05; under `C[C@@H]1CN(c2cc(=O)n(C)c3ncccc23)C[C@H](CN2CC(c3ccc(N4CCNCC4)cc3)C2)O1` [Example 171, 1-methyl-4-[(2R,6S)-2-methyl-6-[[3-(4-piperazin-1-ylphenyl)azetidin-1-yl]methyl]morpholin-4-yl]-1,8-naphthyridin-2-one], 6.89. In the case of `C[C@@H]1CN(c2cc(=O)n(C)c3ncccc23)C[C@H](CN2CC(c3ccc(N4CC5(CN(C)C5)C4)cc3)C2)O1` [Example 180, 1-methyl-4-[(2R,6S)-2-methyl-6-[[3-[4-(6-methyl-2,6-diazaspiro[3.3]heptan-2-yl)phenyl]azetidin-1-yl]methyl]morpholin-4-yl]-1,8-naphthyridin-2-one] it was 7.11; in that of `C[C@@H]1CN(c2ccc(C#N)c3ncccc23)C[C@H](CN2CCN(c3cc(N4CCN(C)CC4)ncn3)CC2)O1` [Example 21, 5-[(2R,6S)-2-methyl-6-[[4-[6-(4-methylpiperazin-1-yl)pyrimidin-4-yl]piperazin-1-yl]methyl]morpholin-4-yl]quinoline-8-carbonitrile], 8.00.

For the compound `Cc1cc(N2CCN(C[C@H]3CN(c4ccc(C#N)c5ncccc45)C[C@@H](C)O3)CC2)nc(N2CC3(CNCCO3)C2)n1` [Example 61, 5-[(2R,6S)-2-methyl-6-[[4-[6-methyl-2-(5-oxa-2,8-diazaspiro[3.5]nonan-2-yl)pyrimidin-4-yl]piperazin-1-yl]methyl]morpholin-4-yl]quinoline-8-carbonitrile], the pIC50 was 8.52. For the compound `C[C@@H]1CN(c2ccc(C#N)c3ncccc23)C[C@H](CN2CCN(c3ccc(N4CC(N)C(F)C4)nc3)CC2)O1` (stereo partly drawn) [Example 44, 5-[(2S,6R)-2-[[4-[6-(3-amino-4-fluoro-pyrrolidin-1-yl)-3-pyridyl]piperazin-1-yl]methyl]-6-methyl-morpholin-4-yl]quinoline-8-carbonitrile], the pIC50 was 8.00. In the case of `C[C@@H]1CN(c2ccc(C#N)c3ncccc23)C[C@H](CN2CCN(c3nc(N4CCNCC4)nc4ccccc34)CC2)O1` [Example 49, 5-[(2R,6S)-2-methyl-6-[[4-(2-piperazin-1-ylquinazolin-4-yl)piperazin-1-yl]methyl]morpholin-4-yl]quinoline-8-carbonitrile] it was 8.00.
